The numbers were not newly measured in patent US5321127A, “Antiplatelet and antithrombotic activity of platelet glycoprotein Ib receptor fragments” (priority 1991, dated 1994), which cites them from elsewhere.

This data set concerns vWF binding to platelets. Conditions: literature.

Consider “synthetic peptide spanning amino acid residues aspartate235 to lysine262: GpIbα synthetic peptide reported by Katagiri et al. (DVKAMTSNVASVQCDNSDKFPVYKYPGK; UniProt P07359 251-278, looked up, fragment)”, for which the “Inhibition of ristocetin-dependent binding of vWF to platelets” value is “inhibited”.
